Assay [1] deals with T1, mutant HIV reverse transcriptase, Y181C mutation (Human immunodeficiency virus type 1 group M subtype B, UniProt P04585, Y768C).
T1 construct: made in house
Description: Analogous RT inhibition assay, Y181C mutant. It is filed as biochemical. The procedure: (§1) 100 μL reaction mixtures were initiated with a combination of primer-template substrate (10 nM final concentration) and dNTPs (0.6 μM dNTPs, 0.75 μM [^3H]-dGTP). The heterodimeric nucleic acid substrate was generated by annealing the DNA primer pD500 (described in Shaw-Reid et al., J. Biol. Chem., 278: 2777-2780; obtained from Integrated DNA Technologies) to t500, a 500 nucleotide RNA template created by in vitro transcription (see Shaw-Reid et al., J. Biol. Chem., 278: 2777-2780). After 1 hour incubation at 37° C., reactions were quenched by 10 μL streptavidin scintillation proximity assay beads (10 mg/mL, from Amersham Biosciences) in 0.5 M EDTA, pH 8. Microtiter plates were incubated an additional 10 minutes at 37° C. prior to quantification via Topcount (Packard).
(§2) Analogous assays were conducted substituting mutant HIV strains to determine the […] inhibition of compounds of the present invention against mutant HIV reverse transcriptase. In one strain the reverse transcriptase has the Y181C mutation and in the other strain the reverse transcriptase has the K103N mutation. The mutations were generated with the […] site-directed mutagenesis kit (Stratagene).

Assay [2] deals with acute HIV infection of T-lymphoid cells. Description: Assay for inhibition of HIV replication (spread assay). In kind it is cell-based. Conditions: Human immunodeficiency virus 1; inhibition of HIV replication in T-lymphoid cells. The procedure:
An assay for the inhibition of acute HIV infection of T-lymphoid cells (alternatively referred to herein as the “spread assay”) was conducted in accordance with Vacca, J. P. et al., Proc. Natl. Acad. Sci. USA 1994, 91: 4096. […] The compounds of Examples 2-4 and 22 were not tested.

In assay [3] the target is T2, mutant HIV reverse transcriptase, K103N mutation (Human immunodeficiency virus type 1 group M subtype B, UniProt P04585, K690N).
T2 construct: made in house
Description: Analogous RT inhibition assay, K103N mutant. It is filed as biochemical. As for the experimental part:
as §1, §2

Setting [4] is: K103N mutant RT, tested up to 20 micromolar, read-out: IC50, K103N mutant assay.
Setting [5] is: Y181C mutant RT, tested up to 20 micromolar, read-out: IC50, Y181C mutant assay.

This passage reports IC50 and IC95 results from US20100168097A1, “Non-Nucleoside Reverse Transcriptase Inhibitors” (priority 2005, published 2010).

Structures are written as SMILES. Like-named read-outs stand apart in the source and are kept apart here.

What is called IC50 is the concentration at which inhibition is half-maximal. Usually IC95 stands for the concentration at which the effect reaches the 95% level. For the compound `N#Cc1ccc(-c2c[nH]c(-c3[nH]c4ccc(Br)cc4c3S(=O)(=O)N3CCCC3)n2)cc1` [Example 33, 4-{2-[5-bromo-3-(pyrrolidin-1-ylsulfonyl)-1H-indol-2-yl]-1H-imidazol-4-yl}benzonitrile], the IC50 is more than 20 µM in assay [1] and less than 1 µM in assay [3] (setting [4]). Also, in assay [2], the 95% effect concentration (IC95) is less than 1 µM.

Turning to `CCC(CC)S(=O)(=O)c1c(-c2ncc(C)[nH]2)[nH]c2ccc(Cl)cc12` [Example 37, 5-chloro-3-[(pent-3-yl)sulfonyl]-2-(5-methyl-1H-imidazol-2-yl)-1H-indole], the IC50 is less than 1 µM in assay [1] (setting [5]) and more than 10 µM in assay [3]. In assay [2], the IC95 was less than 1 µM.

For `O=S(=O)(c1c(-c2nc([C@H](O)[C@@H](O)[C@@H](O)CO)c[nH]2)[nH]c2ccc(Br)cc12)N1CCCC1` [Example 18, (1S,2R,3S)-1-{2-[5-bromo-3-(pyrrolidin-1-ylsulfonyl)-1H-indol-2-yl}-1H-imidazol-4-yl}butane-1,2,3,4-tetrol], the figures for the IC50 in assay [1] and in assay [3] (setting [4]) were 1 to 20 µM and less than 1 µM, respectively. Moreover, in assay [2], the IC95 is less than 1 µM.

Take `COc1ccc(-c2c[nH]c(-c3[nH]c4ccc(Br)cc4c3S(=O)(=O)N3CCCC3)n2)cc1` [Example 28, 5-bromo-2-[4-(4-methoxyphenyl)-1H-imidazol-2-yl]-3-(pyrrolidin-1-ylsulfonyl)-1H-indole]: the IC50 was 1 to 20 µM in assay [1] (setting [5]) and less than 1 µM in assay [3] (setting [4]). Besides, the concentration for an effect of 95% (IC95) in assay [2] is less than 1 µM.

On to `COCc1nc(-c2[nH]c3ccc(Cl)cc3c2S(=O)(=O)c2ccccc2)no1` [Example 1, 5-chloro-2-[5-(methoxymethyl)-1,2,4-oxadiazol-3-yl]-3-(phenylsulfonyl)-1H-indole], for which the IC50 in assay [1] and in assay [3] was more than 20 µM each time. For the same compound, the IC95 in assay [2] was less than 1 µM.

Turning to `Cc1cnc(-c2[nH]c3ccc(Cl)cc3c2S(=O)(=O)C2CCCC2)[nH]1` [Example 35, 5-chloro-3-[(cyclopentyl)sulfonyl]-2-(5-methyl-1H-imidazol-2-yl)-1H-indole], the IC50 in assay [1] (setting [5]) and in assay [3] was less than 1 µM throughout. Besides, the 95% effect concentration (IC95) in assay [2] is less than 1 µM.

As for `CCC(OC)c1cnc(-c2[nH]c3ccc(Br)cc3c2S(=O)(=O)N2CCCC2)[nH]1` (stereo not drawn) [Example 21, 5-bromo-2-[4-(1-methoxypropyl)-1H-imidazol-2-yl]-3-(pyrrolidin-1-ylsulfonyl)-1H-indole], the IC50 in assay [1] is 1 to 20 µM; in assay [3] (setting [4]), less than 1 µM. In assay [2], the IC95 is less than 1 µM.

Take `O=S(=O)(c1ccccc1)c1c(-c2nc(-c3ccccn3)cs2)[nH]c2ccc(Cl)cc12` [Example 3, 5-chloro-3-(phenylsulfonyl)-2-(4-pyridin-2-yl-1,3-thiazol-2-yl)-1H-indole]: the IC50 in assay [1] (setting [5]) and in assay [3] (setting [4]) was more than 20 µM throughout.

For the compound `O=S(=O)(c1ccccc1)c1c(-c2noc(-c3ccccc3F)n2)[nH]c2ccc(Cl)cc12` [Example 7, 5-chloro-2-[5-(2-fluorophenyl)-1,2,4-oxadiazol-3-yl]-3-(phenylsulfonyl)-1H-indole], the IC50 in assay [1] (setting [5]) and in assay [3] (setting [4]) was more than 20 µM each time. Moreover, the IC95 in assay [2] was less than 1 µM.

Take `O=S(=O)(c1ccccc1)c1c(-c2noc(C3CCC3)n2)[nH]c2ccc(Cl)cc12` [Example 13, 5-chloro-2-(5-cyclobutyl-1,2,4-oxadiazol-3-yl)-3-(phenylsulfonyl)-1H-indole]: the IC50 in assay [1] (setting [5]) and in assay [3] (setting [4]) was more than 20 µM throughout. In addition, the IC95 in assay [2] was less than 1 µM.

On to `O=S(=O)(c1c(-c2nc(-c3ccc(Cl)cc3)c[nH]2)[nH]c2ccc(Br)cc12)N1CCCC1` [Example 24, 5-bromo-2-[4-(4-chlorophenyl)-1H-imidazol-2-yl]-3-(pyrrolidin-1-ylsulfonyl)-1H-indole], for which the IC50 in assay [1] (setting [5]) was more than 20 µM; in assay [3] (setting [4]), less than 1 µM. The IC95 in assay [2] is less than 1 µM.

For `O=S(=O)(c1c(-c2nc(-c3ccc4c(c3)OCO4)c[nH]2)[nH]c2ccc(Br)cc12)N1CCCC1` [Example 30, 2-[4-(1,3-benzodioxol-5-yl)-1H-imidazol-2-yl]-5-bromo-3-(pyrrolidin-1-ylsulfonyl)-1H-indole], the IC50 in assay [1] (setting [5]) is 1 to 20 µM; in assay [3] (setting [4]) it was less than 1 µM. In addition, the IC95 in assay [2] was less than 1 µM.

Turning to `O=S(=O)(c1ccccc1)c1c(-c2noc([C@@H]3C[C@H]3c3ccccc3)n2)[nH]c2ccc(Cl)cc12` [Example 8, 5-chloro-2-{5-[(1R,2R)-2-phenylcyclopropyl]-1,2,4-oxadiazol-3-yl}-3-(phenylsulfonyl)-1H-indole], the half-inhibitory concentration (IC50) in assay [1] (setting [5]) and in assay [3] (setting [4]) was more than 20 µM in each case. The compound also had an IC95 in assay [2] of 2.5 µM.

Consider `COC(=O)c1cc(-c2c[nH]c(-c3[nH]c4ccc(Br)cc4c3S(=O)(=O)N3CCCC3)n2)ccc1O` [Example 31, methyl 5-{2-[5-bromo-3-(pyrrolidin-1-ylsulfonyl)-1H-indol-2-yl]-1H-imidazol-4-yl}-2-hydroxybenzoate], for which the values for the IC50 in assay [1] and in assay [3] (setting [4]) were more than 20 µM and less than 1 µM, respectively. In addition, the concentration for an effect of 95% (IC95) in assay [2] was less than 1 µM.

As to `CCc1nc(-c2[nH]c3ccc(Cl)cc3c2S(=O)(=O)c2ccccc2)no1` [Example 15, 5-chloro-2-(5-ethyl-1,2,4-oxadiazol-3-yl)-3-(phenylsulfonyl)-1H-indole], the IC50 in assay [1] (setting [5]) and in assay [3] (setting [4]) was more than 20 µM each time. In assay [2], the IC95 was less than 1 µM.

Take `O=S(=O)(c1c(-c2nc(-c3ccc(F)cc3)c[nH]2)[nH]c2ccc(Br)cc12)N1CCCC1` [Example 25, 5-bromo-2-[4-(4-fluorophenyl)-1H-imidazol-2-yl]-3-(pyrrolidin-1-ylsulfonyl)-1H-indole]: the 50% inhibitory concentration (IC50) is more than 20 µM in assay [1] (setting [5]) and less than 1 µM in assay [3] (setting [4]). Further, the IC95 in assay [2] was less than 1 µM.

`O=S(=O)(c1ccccc1)c1c(-c2noc(-c3ccc(F)cc3F)n2)[nH]c2ccc(Cl)cc12` [Example 11, 5-chloro-2-[5-(2,4-difluorophenyl)-1,2,4-oxadiazol-3-yl]-3-(phenylsulfonyl)-1H-indole]: the IC50 in assay [1] (setting [5]) and in assay [3] (setting [4]) was more than 20 µM in each case. The IC95 in assay [2] was less than 1 µM.

Turning to `O=[N+]([O-])c1ccc(-c2c[nH]c(-c3[nH]c4ccc(Br)cc4c3S(=O)(=O)N3CCCC3)n2)cc1` [Example 32, 5-bromo-2-[4-(4-nitrophenyl)-1H-imidazol-2-yl]-3-(pyrrolidin-1-ylsulfonyl)-1H-indole], the figures for the half-inhibitory concentration (IC50) in assay [1] and in assay [3] (setting [4]) were 1 to 20 µM and less than 1 µM, respectively. For the same compound, the IC95 in assay [2] is less than 1 µM.

`O=S(=O)(c1c(-c2nc3ccccc3[nH]2)[nH]c2ccc(Br)cc12)N1CCCC1` [Example 17, 2-[5-bromo-3-(pyrrolidin-1-ylsulfonyl)-1H-indol-2-yl]-1H-benzimidazole]: the IC50 in assay [1] and in assay [3] (setting [4]) was less than 1 µM throughout. The compound further returned an IC95 in assay [2] of less than 1 µM.

For the compound `O=S(=O)(c1c(-c2nc(-c3ccc(O)cc3)c[nH]2)[nH]c2ccc(Br)cc12)N1CCCC1` [Example 27, 4-{2-[5-bromo-3-(pyrrolidin-1-ylsulfonyl)-1H-indol-2-yl]-1H-imidazol-4-yl}phenol], the figures for the IC50 in assay [1] (setting [5]) and in assay [3] (setting [4]) were 1 to 20 µM and less than 1 µM, respectively. This compound also returned an IC95 in assay [2] of less than 1 µM.

Regarding `Cc1cnc(-c2[nH]c3ccc(Cl)cc3c2S(=O)(=O)CC2CCC2)[nH]1` [Example 34, 5-Chloro-3-[(cyclobutylmethyl)sulfonyl]-2-(5-methyl-1H-imidazol-2-yl)-1H-indole], the IC50 in assay [1] (setting [5]) was less than 1 µM; in assay [3], more than 3 µM. In assay [2], this compound gave an IC95 of less than 1 µM.

As for `O=S(=O)(c1c(-c2nc(-c3ccc(N4CCOCC4)cc3)c[nH]2)[nH]c2ccc(Br)cc12)N1CCCC1` [Example 19, 5-bromo-2-[4-(4-morpholin-4-ylphenyl)-1H-imidazol-2-yl]-3-(pyrrolidin-1-ylsulfonyl)-1H-indole], the figures for the IC50 in assay [1] and in assay [3] (setting [4]) were more than 20 µM and less than 1 µM, respectively. In addition, the 95% effect concentration (IC95) in assay [2] is less than 1 µM.

For the compound `O=S(=O)(c1ccccc1)c1c(-c2noc(COc3ccccc3)n2)[nH]c2ccc(Cl)cc12` [Example 9, 5-chloro-2-[5-(phenoxymethyl)-1,2,4-oxadiazol-3-yl]-3-(phenylsulfonyl)-1H-indole], the IC50 in assay [1] (setting [5]) and in assay [3] (setting [4]) was more than 20 µM each time. In assay [2], this compound had an IC95 of less than 1 µM.

For `O=S(=O)(c1c(-c2nc(-c3ccc(F)cc3F)c[nH]2)[nH]c2ccc(Br)cc12)N1CCCC1` [Example 22, 5-bromo-2-[4-(2,4-difluorophenyl)-1H-imidazol-2-yl]-3-(pyrrolidin-1-ylsulfonyl)-1H-indole], the results for the IC50 in assay [1] (setting [5]) and in assay [3] (setting [4]) were more than 20 µM and less than 1 µM, respectively.

`O=S(=O)(c1ccccc1)c1c(-c2nc(-c3cccnc3)cs2)[nH]c2ccc(Cl)cc12` [Example 4, 5-chloro-3-(phenylsulfonyl)-2-(4-pyridin-3-yl-1,3-thiazol-2-yl)-1H-indole]: the IC50 in assay [1] (setting [5]) and in assay [3] (setting [4]) was more than 20 µM each time.
